In EP4714938A1, “HDAC1/2 SELECTIVE INHIBITOR AND USE THEREOF” (Wigen Biomedicine Technology (Shanghai) Co., Ltd., priority 2023, dated 2024):
pIC50: −log10 of the molar value. Like-named read-outs stand apart in the source and are kept apart here.

How the values were obtained:
HDAC3 = HDAC3 (Homo sapiens, UniProt O15379); assay: HDAC enzyme inhibitory activity, FRET method; format: biochemical; conditions: read-out: IC50 HDAC3
Method: (§1) The compounds of the present disclosure were assayed for enzyme inhibitory activity against various subtypes of HDAC enzymes by the FRET method. The various subtypes of HDAC enzymes were obtained either through purification or direct purchase of assay kits.
(§2) The specific method was as follows: The enzyme was added to a 384-well plate, and a reaction buffer was added to the control well. Serially diluted DMSO sample solutions were added to the reaction wells, and the plate was incubated at room temperature for 15 min. Then a chromogenic agent was added to stop the reaction, and fluorescence was generated. The fluorescence intensity was measured using an EnVision multi-label microplate reader (excitation: 355 nm, emission: 460 nm). The endpoint value was read after the color development reached stability. The inhibition IC50 of the compounds was calculated using GraphPad Prism4 software relative to DMSO.

HDAC2 = HDAC2 (Homo sapiens, UniProt Q92769); assay: HDAC enzyme inhibitory activity, FRET method; format: biochemical; conditions: read-out: IC50 HDAC2
Sequence of HDAC2 (Q92769 whole entry, species assumed): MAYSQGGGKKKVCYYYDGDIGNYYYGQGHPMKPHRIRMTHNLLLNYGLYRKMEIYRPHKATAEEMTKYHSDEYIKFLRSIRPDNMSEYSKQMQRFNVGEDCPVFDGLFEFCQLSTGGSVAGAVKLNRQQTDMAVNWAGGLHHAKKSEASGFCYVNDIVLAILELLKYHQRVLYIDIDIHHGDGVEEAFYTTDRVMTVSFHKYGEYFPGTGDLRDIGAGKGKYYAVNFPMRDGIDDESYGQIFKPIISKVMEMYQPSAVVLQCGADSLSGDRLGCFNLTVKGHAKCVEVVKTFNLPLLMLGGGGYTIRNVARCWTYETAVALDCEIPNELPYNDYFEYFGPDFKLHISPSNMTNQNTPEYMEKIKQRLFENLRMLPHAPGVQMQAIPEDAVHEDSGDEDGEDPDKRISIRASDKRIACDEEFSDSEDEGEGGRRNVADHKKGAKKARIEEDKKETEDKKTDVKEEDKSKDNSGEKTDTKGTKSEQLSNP
Method: as §1, §2

HDAC1 = HDAC1 (Homo sapiens, UniProt Q13547); assay: HDAC enzyme inhibitory activity, FRET method; format: biochemical; conditions: read-out: IC50 HDAC1
Sequence of HDAC1 (Q13547 whole entry, species assumed): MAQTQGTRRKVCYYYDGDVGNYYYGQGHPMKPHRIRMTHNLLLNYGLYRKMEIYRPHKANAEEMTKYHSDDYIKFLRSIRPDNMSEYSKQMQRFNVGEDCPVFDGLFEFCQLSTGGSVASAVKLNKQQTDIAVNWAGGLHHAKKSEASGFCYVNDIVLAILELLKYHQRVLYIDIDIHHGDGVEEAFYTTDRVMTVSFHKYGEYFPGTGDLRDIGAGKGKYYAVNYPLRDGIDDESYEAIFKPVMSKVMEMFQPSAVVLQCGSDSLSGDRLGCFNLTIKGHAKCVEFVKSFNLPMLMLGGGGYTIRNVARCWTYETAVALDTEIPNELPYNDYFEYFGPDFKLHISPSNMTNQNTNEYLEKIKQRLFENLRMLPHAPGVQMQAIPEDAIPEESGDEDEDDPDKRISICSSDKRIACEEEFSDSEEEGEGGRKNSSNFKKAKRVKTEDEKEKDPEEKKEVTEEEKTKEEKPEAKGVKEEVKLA
Method: as §1, §2

[1] = Stability in liver microsomes; format: in vitro ADME; conditions: for half-life at 1 µM: 1 µM compound, 37 °C, NADPH regeneration system
Method: After the 1 µM compound was individually incubated at 37 °C for various durations with […] liver microsomes from humans, monkeys, beagles, rats, or mice in the presence of an NADPH regeneration system, LC-MS-MS was used to analyze the remaining amount of the compound, and T1/2 was calculated. Table 10. Evaluation results of stability of compounds of the present disclosure in human and mouse liver microsomes

Sequence of HDAC3 (O15379 whole entry, species assumed): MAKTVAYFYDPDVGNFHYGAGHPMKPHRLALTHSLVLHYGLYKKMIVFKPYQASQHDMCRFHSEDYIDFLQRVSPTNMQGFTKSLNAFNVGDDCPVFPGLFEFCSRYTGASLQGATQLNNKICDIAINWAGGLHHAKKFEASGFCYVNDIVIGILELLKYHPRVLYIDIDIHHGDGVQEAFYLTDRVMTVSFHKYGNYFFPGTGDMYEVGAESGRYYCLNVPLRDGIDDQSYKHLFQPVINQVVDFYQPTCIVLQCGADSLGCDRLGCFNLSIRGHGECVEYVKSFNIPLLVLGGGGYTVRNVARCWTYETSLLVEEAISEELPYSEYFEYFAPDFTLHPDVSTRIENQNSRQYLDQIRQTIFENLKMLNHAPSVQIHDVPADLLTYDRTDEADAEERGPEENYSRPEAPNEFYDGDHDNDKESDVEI
Sequence of HDAC3 (Q9Y618 395-489 partner limits assumed, species assumed): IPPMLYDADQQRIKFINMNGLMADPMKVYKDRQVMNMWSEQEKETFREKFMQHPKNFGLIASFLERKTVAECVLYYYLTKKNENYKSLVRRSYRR

Row | pIC50 (HDAC3; Table 4) | pIC50 (HDAC2; Table 4) | pIC50 (HDAC1; Table 4) | Structure (SMILES) | further results
1 | < 5.30 | > 6.30 | > 6.30 | CN1CC2(CCS(=O)(=Nc3ccc(C(=O)Nc4cc(-c5ccc(F)cc5)ccc4N)cc3)CC2)C1 [Compound 72] | pIC50 (HDAC3; Table 5): < 5.52; pIC50 (HDAC2; Table 5): 6.52 to 7.52; pIC50 (HDAC1; Table 5): > 7.52
2 | < 5.30 | > 6.30 | > 6.30 | CS(C)(=O)=Nc1ccc(C(=O)Nc2cc(-c3ccc(F)s3)ccc2O)cc1 [Compound 42] | 
3 |  |  |  | Nc1ccc(-c2ccc(F)cc2)cc1NC(=O)c1ccc(N=S2(=O)CC3(CNC3)C2)cc1 [Compound 55] | pIC50 (HDAC3; Table 5): < 5.52; pIC50 (HDAC2; Table 5): 6.52 to 7.52; pIC50 (HDAC1; Table 5): > 7.52
4 | < 5.30 | > 6.30 | > 6.30 | CN1CC2(C1)CS(=O)(=Nc1ccc(C(=O)Nc3cc(-c4cccs4)ccc3N)cc1)C2 [Compound 79] | 
5 | < 5.30 | 5.30 to 6.30 | > 6.30 | COC(=O)c1ccc(-c2ccc(N)c(NC(=O)c3ccc(N=S(C)(C)=O)cc3)c2)cc1 [Compound 5] | 
6 | < 5.30 | > 6.30 | > 6.30 | CS(C)(=O)=Nc1ccc(C(=O)Nc2cc(-c3ccncn3)ccc2N)cc1 [Compound 16] | 
7 | < 5.30 | > 6.30 | > 6.30 | CS(C)(=O)=Nc1ccc(C(=O)Nc2cc(-c3ccccn3)ccc2N)cc1 [Compound 14] | 
8 | < 5.30 | 5.30 to 6.30 | 5.30 to 6.30 | CP(C)(=O)c1ccc(-c2ccc(N)c(NC(=O)c3ccc(N=S(C)(C)=O)cc3)c2)cc1 [Compound 6] | 
9 | < 5.30 | > 6.30 | > 6.30 | CN1CC2(C1)CS(=O)(=Nc1ccc(C(=O)Nc3cc(-c4ccc(F)s4)ccc3N)cc1)C2 [Compound 95] | 
10 | < 5.30 | > 6.30 | > 6.30 | CS(C)(=O)=NC1CCC(C(=O)Nc2cc(-c3ccc(F)cc3)ccc2N)CC1 (stereo not drawn) [Compound 45] | 
11 | < 5.30 | > 6.30 | > 6.30 | CS(C)(=O)=Nc1ccc(C(=O)Nc2cc(-c3cccnc3)ccc2N)cc1 [Compound 15] | 
12 | < 5.30 | > 6.30 | > 6.30 | CS(C)(=O)=NC1CCC(C(=O)Nc2cc(-c3ccc(Cl)s3)ccc2N)CC1 (stereo not drawn) [Compound 48] | 
13 | < 5.30 | > 6.30 | > 6.30 | Nc1ccc(-c2ccc(F)s2)cc1NC(=O)c1ccc(N=S2(=O)CC3(CCC3)C2)cc1 [Compound 93] | 
14 | < 5.30 | 5.30 to 6.30 | 5.30 to 6.30 | CS(C)(=O)=Nc1ccc(C(=O)Nc2cc(-c3ccc(C4CC4)cc3)ccc2N)cc1 [Compound 8] | 
15 |  |  |  | Nc1ccc(-c2ccc(F)cc2)cc1NC(=O)c1ccc(N=S2(=O)CC3(CCC3)C2)cc1 [Compound 54] | pIC50 (HDAC3; Table 5): < 5.52; pIC50 (HDAC2; Table 5): 6.52 to 7.52; pIC50 (HDAC1; Table 5): > 7.52
16 | < 5.30 | > 6.30 | > 6.30 | CS(C)(=O)=Nc1ccc(C(=O)Nc2cc(-c3ncccn3)ccc2N)cc1 [Compound 18] | 
17 |  |  |  | Nc1ccc(-c2ccc(F)cc2)cc1NC(=O)c1ccc(N=S2(=O)CCOCC2)cc1 [Compound 60] | pIC50 (HDAC3; Table 5): < 5.52; pIC50 (HDAC2; Table 5): 6.52 to 7.52; pIC50 (HDAC1; Table 5): > 7.52
18 | < 5.30 | > 6.30 | > 6.30 | CS(C)(=O)=Nc1ccc(C(=O)Nc2cc(-c3ccc(C#N)cc3)ccc2N)cc1 [Compound 4] | 
19 |  |  |  | Nc1ccc(-c2ccc(F)cc2)cc1NC(=O)c1ccc(N=S2(=O)CCCC2)cc1 [Compound 57] | pIC50 (HDAC3; Table 5): < 5.52; pIC50 (HDAC2; Table 5): 6.52 to 7.52; CLint scaled at 1 µM ([1]; Human liver microsomes): 7.51 mL/min/kg; Clliver ([1]; Human liver microsomes): 5.51 mL/min/kg; half-life at 1 µM ([1]; Human liver microsomes): 3.86 h; CLint scaled at 1 µM ([1]; Mouse liver microsomes): 33 mL/min/kg; Clliver ([1]; Mouse liver microsomes): 24.16 mL/min/kg; half-life at 1 µM ([1]; Mouse liver microsomes): 2.75 h; pIC50 (HDAC1; Table 5): > 7.52
20 | < 5.30 | > 6.30 | > 6.30 | Nc1ccc(-c2cccs2)cc1NC(=O)c1ccc(N=S2(=O)CCCC2)cc1 [Compound 80] | 
21 |  |  |  | CCS(=O)(CC)=Nc1ccc(C(=O)Nc2cc(-c3ccc(F)cc3)ccc2N)cc1 [Compound 59] | pIC50 (HDAC3; Table 5): < 5.52; pIC50 (HDAC2; Table 5): 6.52 to 7.52; pIC50 (HDAC1; Table 5): > 7.52
22 | < 5.30 | > 6.30 | > 6.30 | [2H]C([2H])([2H])N1CCS(=O)(=Nc2ccc(C(=O)Nc3cc(-c4cccs4)ccc3N)cc2)CC1 [Compound 90] | 
23 | < 5.30 | > 6.30 | > 6.30 | Nc1ccc(-c2ccc(F)s2)cc1NC(=O)c1ccc(N=S2(=O)CCCC2)cc1 [Compound 96] | 
24 | < 5.30 | > 6.30 | > 6.30 | Nc1ccc(-c2ccc(F)cc2)cc1NC(=O)c1ccc(N=S2(=O)CCN(CC3CC3)CC2)cc1 [Compound 71] | 
25 |  |  |  | CN1CC2(C1)CS(=O)(=Nc1ccc(C(=O)Nc3cc(-c4ccc(F)cc4)ccc3N)cc1)C2 [Compound 56] | pIC50 (HDAC3; Table 5): < 5.52; pIC50 (HDAC2; Table 5): 6.52 to 7.52; pIC50 (HDAC1; Table 5): > 7.52

Row | pIC50 (HDAC3; Table 4) | pIC50 (HDAC2; Table 4) | pIC50 (HDAC1; Table 4) | Structure (SMILES) | further results
26 |  |  |  | Nc1ccc(-c2ccc(F)cc2)cc1NC(=O)c1ccc(N=S2(=O)CCC2)cc1 [Compound 53] | pIC50 (HDAC3; Table 5): < 5.52; pIC50 (HDAC2; Table 5): 6.52 to 7.52; pIC50 (HDAC1; Table 5): > 7.52
27 | < 5.30 | > 6.30 | > 6.30 | CS(C)(=O)=Nc1ccc(C(=O)Nc2cc(-c3ccc(C(F)(F)F)cc3)ccc2N)cc1 [Compound 7] | 
28 | < 5.30 | > 6.30 | > 6.30 | [2H]c1ccc(-c2ccc(N)c(NC(=O)c3ccc(N=S(C)(C)=O)cc3)c2)cc1 [Compound 12] | 
29 |  |  |  | Nc1ccc(-c2ccc(F)cc2)cc1NC(=O)c1ccc(N=S2(=O)CCC(F)(F)CC2)cc1 [Compound 63] | pIC50 (HDAC3; Table 5): < 5.52; pIC50 (HDAC2; Table 5): 6.52 to 7.52; pIC50 (HDAC1; Table 5): > 7.52
30 | < 5.30 | > 6.30 | > 6.30 | CNC(=O)c1ccc(-c2ccc(N)c(NC(=O)c3ccc(N=S(C)(C)=O)cc3)c2)cc1 [Compound 11] | 
31 | < 5.30 | > 6.30 | > 6.30 | CS(C)(=O)=Nc1ccc(C(=O)Nc2cc(-c3ccccc3)ccc2N)cc1 [Compound 2] | 
32 | < 5.30 | > 6.30 | > 6.30 | CS(C)(=O)=Nc1ccc(C(=O)Nc2cc(-c3ccc(F)cc3F)ccc2N)cc1 [Compound 10] | 
33 |  |  |  | Nc1ccc(-c2ccc(F)cc2)cc1NC(=O)c1ccc(N=S2(=O)CCC(F)(F)C2)cc1 (stereo not drawn) [Compound 65] | pIC50 (HDAC3; Table 5): < 5.52; pIC50 (HDAC2; Table 5): 6.52 to 7.52; pIC50 (HDAC1; Table 5): > 7.52
34 | < 5.30 | > 6.30 | > 6.30 | Nc1ccc(-c2ccc(F)s2)cc1NC(=O)c1ccc(N=S2(=O)CCC2)cc1 [Compound 92] | 
35 | < 5.30 | > 6.30 | > 6.30 | CS(C)(=O)=Nc1ccc(C(=O)Nc2cc(-c3ccc(F)cn3)ccc2N)cc1 [Compound 19] | 
36 |  |  |  | Nc1ccc(-c2ccc(F)cc2)cc1NC(=O)c1ccc(N=S2(=O)CCCCC2)cc1 [Compound 58] | pIC50 (HDAC3; Table 5): < 5.52; pIC50 (HDAC2; Table 5): 6.52 to 7.52; pIC50 (HDAC1; Table 5): > 7.52
37 | < 5.30 | > 6.30 | > 6.30 | COc1ccc(-c2ccc(N)c(NC(=O)c3ccc(N=S(C)(C)=O)cc3)c2)cc1 [Compound 9] | 
38 | < 5.30 | > 6.30 | > 6.30 | CN1CCS(=O)(=Nc2ccc(C(=O)Nc3cc(-c4cccs4)ccc3N)cc2)CC1 [Compound 89] | 
39 | < 5.30 | > 6.30 | > 6.30 | CS(C)(=O)=Nc1ccc(C(=O)Nc2cc(-c3ccc(F)cc3)c(F)cc2N)cc1 [Compound 43] | 
40 | < 5.30 | > 6.30 | > 6.30 | CS(C)(=O)=Nc1ccc(C(=O)Nc2cc(-c3ccncc3)ccc2N)cc1 [Compound 13] | 
41 | < 5.30 | > 6.30 | > 6.30 | [2H]C([2H])([2H])N1CCS(=O)(=Nc2ccc(C(=O)Nc3cc(-c4ccc(F)cc4)ccc3N)cc2)CC1 [Compound 68] | pIC50 (HDAC3; Table 5): < 5.52; pIC50 (HDAC2; Table 5): 6.52 to 7.52; pIC50 (HDAC1; Table 5): > 7.52
42 | < 5.30 | 5.30 to 6.30 | > 6.30 | CS(C)(=O)=Nc1ccc(C(=O)Nc2cc(-c3ccc(F)cc3)ccc2O)cc1 [Compound 41] | 
43 | < 5.30 | > 6.30 | > 6.30 | CN1CC2(CCS(=O)(=Nc3ccc(C(=O)Nc4cc(-c5cccs5)ccc4N)cc3)CC2)C1 [Compound 91] | 
44 | < 5.30 | > 6.30 | > 6.30 | CS(C)(=O)=Nc1ccc(C(=O)Nc2cc(-c3ccco3)ccc2N)cc1 [Compound 20] | 
45 | < 5.30 | > 6.30 | > 6.30 | Cc1nn(C)cc1CN1CCS(=O)(=Nc2ccc(C(=O)Nc3cc(-c4ccc(F)cc4)ccc3N)cc2)CC1 [Compound 73] | pIC50 (HDAC3; Table 5): < 5.52; pIC50 (HDAC2; Table 5): 6.52 to 7.52; pIC50 (HDAC1; Table 5): > 7.52
46 |  |  |  | CCN1CCS(=O)(=Nc2ccc(C(=O)Nc3cc(-c4ccc(F)cc4)ccc3N)cc2)CC1 [Compound 69] | pIC50 (HDAC3; Table 5): < 5.52; pIC50 (HDAC2; Table 5): 6.52 to 7.52; pIC50 (HDAC1; Table 5): > 7.52
47 | < 5.30 | > 6.30 | > 6.30 | Nc1ccc(-c2ccc(F)s2)cc1NC(=O)c1ccc(N=S2(=O)CC3(CNC3)C2)cc1 [Compound 94] | 
48 | < 5.30 | > 6.30 | > 6.30 | CS(C)(=O)=NC1CCC(C(=O)Nc2cc(-c3ccc(F)s3)ccc2N)CC1 (stereo not drawn) [Compound 47] | 
49 | < 5.30 | > 6.30 | > 6.30 | CS(C)(=O)=Nc1ccc(C(=O)Nc2cc(-c3cncnc3)ccc2N)cc1 [Compound 17] | 
50 | < 5.30 | > 6.30 | > 6.30 | CS(C)(=O)=Nc1ccc(C(=O)Nc2cc(-c3cccs3)c(F)cc2N)cc1 [Compound 44] | 
